The supplement of paper PMC10307832

Columns and labels:
Test in all cases: relative viability (nuclei count vs DMSO), 5 days (fraction); higher = more cells survive
NCI-H1755 = system: NCI-H1755
Summary of the method: (§1)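 Nuclei were stained with Hoechst during a one-step fixation (final 0.05% Triton X-100, 1% formaldehyde, 1 ug/ml Hoechst) carried out 5 days after dosing, then counted on 4× images. The cells, lung cancer lines in 1536-well plates, had been dosed by pin tool the day after seeding with one drug alone or a fixed anchor-drug dose plus five library-drug doses (not always all listed) in √10 steps. Relative viability is the nuclei count in treated wells divided by that in vehicle wells, and each value is the median of duplicate plates.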

NCI-H1793 = system: NCI-H1793
Summary of the method: as §1

NCI-H1944 = system: NCI-H1944
Summary of the method: as §1

NCI-H2087 = system: NCI-H2087
Summary of the method: as §1

NCI-H2170 = system: NCI-H2170
Summary of the method: as §1

NCI-H2228 = system: NCI-H2228
Summary of the method: as §1

NCI-H2405 = system: NCI-H2405
Summary of the method: as §1

NCI-H3122 = system: NCI-H3122
Summary of the method: as §1

NCI-H460 = system: NCI-H460
Summary of the method: as §1

PC-3 [JPC-3] = system: PC-3 [JPC-3]
Summary of the method: as §1

RERF-LC-KJ = system: RERF-LC-KJ
Summary of the method: as §1

UMC-11 = system: UMC-11
Summary of the method: as §1

Work on C=C1C(=O)O[C@@H](CCCCCCCC)[C@@H]1C(=O)O [C-75] + COc1cccc2cc(-c3nc([C@H]4CC[C@H](C(=O)O)CC4)n4ncnc(N)c34)[nH]c12 [OSI-027] (partner 0.5 µM) yielded a relative viability (NCI-H1755; first compound 0.253 µM) of 0.724, a relative viability (NCI-H1755; first compound 0.8 µM) of 0.711 and a relative viability (NCI-H1755; first compound 2.53 µM) of 0.604. It also gave a relative viability (NCI-H1755; first compound 8 µM) of 0.72, a relative viability (NCI-H1793; first compound 0.08 µM) of 0.337 and a relative viability (NCI-H1793; first compound 0.253 µM) of 0.284. It also gave a relative viability (NCI-H1793; first compound 0.8 µM) of 0.241, a relative viability (NCI-H1793; first compound 2.53 µM) of 0.224 and a relative viability (NCI-H1793; first compound 8 µM) of 0.342. For the same compound, the relative viability (NCI-H1944; first compound 0.08 µM) was 0.441, the relative viability (NCI-H1944; first compound 0.253 µM) was 0.426 and the relative viability (NCI-H1944; first compound 0.8 µM) was 0.392. It also gave a relative viability (NCI-H1944; first compound 8 µM) of 0.448, a relative viability (NCI-H2087; first compound 0.08 µM) of 0.609 and a relative viability (NCI-H2087; first compound 0.253 µM) of 0.807. It also gave a relative viability (NCI-H2087; first compound 0.8 µM) of 0.54, a relative viability (NCI-H2087; first compound 2.53 µM) of 0.377 and a relative viability (NCI-H2087; first compound 8 µM) of 0.528. The relative viability (NCI-H2170; first compound 0.08 µM) was 0.797, the relative viability (NCI-H2170; first compound 0.253 µM) was 0.78 and the relative viability (NCI-H2170; first compound 0.8 µM) was 0.706. It also gave a relative viability (NCI-H2170; first compound 2.53 µM) of 0.321, a relative viability (NCI-H2170; first compound 8 µM) of 0.703 and a relative viability (NCI-H2228; first compound 0.08 µM) of 0.534. It also gave a relative viability (NCI-H2228; first compound 0.253 µM) of 0.686, a relative viability (NCI-H2228; first compound 0.8 µM) of 0.398 and a relative viability (NCI-H2228; first compound 2.53 µM) of 0.302. The relative viability (NCI-H2228; first compound 8 µM) was 0.517, the relative viability (NCI-H2405; first compound 0.08 µM) was 0.7 and the relative viability (NCI-H2405; first compound 0.253 µM) was 0.63. It also gave a relative viability (NCI-H2405; first compound 0.8 µM) of 0.657, a relative viability (NCI-H2405; first compound 2.53 µM) of 0.519 and a relative viability (NCI-H2405; first compound 8 µM) of 0.698. For the same compound, the relative viability (NCI-H3122; first compound 0.08 µM) was 1.1, the relative viability (NCI-H3122; first compound 0.253 µM) was 1.27 and the relative viability (NCI-H3122; first compound 0.8 µM) was 0.971. For the same compound, the relative viability (NCI-H3122; first compound 8 µM) was 0.854, the relative viability (NCI-H460; first compound 0.08 µM) was 0.664 and the relative viability (NCI-H460; first compound 0.253 µM) was 0.751. The relative viability (NCI-H460; first compound 0.8 µM) was 0.59, the relative viability (NCI-H460; first compound 8 µM) was 0.527 and the relative viability (PC-3 [JPC-3]; first compound 0.08 µM) was 0.772. For the same compound, the relative viability (PC-3 [JPC-3]; first compound 0.253 µM) was 0.806, the relative viability (PC-3 [JPC-3]; first compound 0.8 µM) was 0.736 and the relative viability (PC-3 [JPC-3]; first compound 2.53 µM) was 0.668. The relative viability (PC-3 [JPC-3]; first compound 8 µM) was 0.749, the relative viability (RERF-LC-KJ; first compound 0.08 µM) was 0.713 and the relative viability (RERF-LC-KJ; first compound 0.253 µM) was 0.63. The relative viability (RERF-LC-KJ; first compound 0.8 µM) was 0.514, the relative viability (RERF-LC-KJ; first compound 2.53 µM) was 0.552 and the relative viability (RERF-LC-KJ; first compound 8 µM) was 0.561. It also gave a relative viability (UMC-11; first compound 0.08 µM) of 0.457, a relative viability (UMC-11; first compound 0.253 µM) of 0.579 and a relative viability (UMC-11; first compound 0.8 µM) of 0.477. For the same compound, the relative viability (UMC-11; first compound 2.53 µM) was 0.461 and the relative viability (UMC-11; first compound 8 µM) was 0.417.
